Measured values as given in patent publication US6737383B1, “Herbicidal oxadiazolidines” (priority 1999, dated 2004).

How the values were obtained:
[1] = system: guineagrass; assay: Test D guineagrass; type: in vivo, Panicum maximum; details: Postemergence, 0 to 100 scale
[2] = system: sandbur; assay: Test D sandbur; type: in vivo, Cenchrus echinatus; details: Postemergence, 0 to 100 scale
[3] = system: Green foxtail; assay: Test D green foxtail; type: in vivo; details: Postemergence, 0 to 100 scale, 0 no injury, 100 complete control
[4] = system: Green foxtail; assay: Test D green foxtail; type: in vivo; details: Postemergence, 0 to 100 scale, 0 no injury, 100 complete control; remark: listed apart in the source
[5] = system: itchgrass; assay: Test D itchgrass; type: in vivo, Rottboellia exaltata; details: Postemergence, 0 to 100 scale
[6] = system: goosegrass; assay: Test D goosegrass; type: in vivo, Eleusine indica; details: Postemergence, 0 to 100 scale
[7] = system: Johnson grass; assay: Test D Johnson grass; type: in vivo, Sorghum halepense; details: Postemergence, 0 to 100 scale
[8] = system: tall mallow; assay: Test D tall mallow; type: in vivo, Malva sylvestris; details: Postemergence, 0 to 100 scale
[9] = system: sourgrass; assay: Test D sourgrass; type: in vivo, Trichachne insularis; details: Postemergence, 0 to 100 scale
[10] = system: common ragweed; assay: Test D common ragweed; type: in vivo, Ambrosia elatior; details: Postemergence, 0 to 100 scale
[11] = system: Green foxtail; assay: Test D green foxtail; type: in vivo; details: Rate 250 g/ha; Postemergence; 0 to 100 scale
[12] = system: Digitaria sanguinalis (DIGSA); assay: Test F preemergence, alone and in mixture with rimsulfuron, DIGSA; type: in vivo; details: 21 days after treatment, 0-100 scale
Method: Abutilon theophrasti (ABUTH), Chenopodium album (CHEAL), Amaranthus rudis (AMATA), Setaria faberii (SETFA), Panicum dichotomiflorum (PANDI), and Digitaria sanguinalis (DIGSA) were grown from seed in pots of an artificial potting mixture in a greenhouse. Compounds of the present invention were applied at 70 and 105 g ai/ha preemergence. Rimsulfuron was applied at 8.8 and 17.5 g ai/ha. Mixtures of the compounds of the present invention and rimsulfuron were also applied.
Following application, the plants were maintained by watering as needed. A fertilizer solution of Peter's 20-20-20 (10 pounds/5 gallons of water) plus Sprint 330, a Iron Chelate micronutrient, (113.5 grams/5 gallons of water) was injected into the water with an Anderson fertilizer injection system to provide approximately 219 ppm of nitrogen with each watering. Artificial lighting was used to supplement natural light to produce a 14 hour photoperiod and: an additional one hour light period was used between 1:00 am to 2:00 am for a night interruption. Greenhouse temperatures were targeted for 27° C. in the day and 21° C. at night. At 21 days after treatment, all plants were evaluated for injury as compared to control plants that were sprayed only with non-phytotoxic solvent.
Colby's equation was used to calculate the expected additive herbicidal effect of the mixtures of Compound 21 and the mixture partners listed above. […]

[13] = Rate 16 g/ha, 0 no injury, 100 complete control
[14] = Rate 32 g/ha, 0 no injury, 100 complete control
[15] = Rate 64 g/ha, 0 no injury, 100 complete control
[16] = Rate 125 g/ha, 0 no injury, 100 complete control

SMILES: CC(C)N(C(=O)n1oc(=O)n(C(C)C)c1=O)c1ccc(F)cc1 [Compound 131]
- Plant response rating, Guineagrass [1, 13]: 0
- Plant response rating, Guineagrass [1, 14]: 20
- Plant response rating, Guineagrass [1, 15]: 100
- Plant response rating, Guineagrass [1, 16]: 100
- Plant response rating, Guineagrass ([1]; Rate 250 g/ha): 100
- Plant response rating, Sandbur [2, 13]: 0
- Plant response rating, Sandbur [2, 14]: 0
- Sandbur plant response rating [2, 15]: 100
- Sandbur plant response rating [2, 16]: 100
- Plant response rating, Sandbur ([2]; Rate 250 g/ha): 100
- Plant response rating, Green foxtail ([3]; Rate 16 g/ha): 0
- Plant response rating, Green foxtail ([3]; Rate 32 g/ha): 60
- Green foxtail plant response rating ([4]; Rate 64 g/ha): 100
- Green foxtail plant response rating ([4]; Rate 125 g/ha): 100
- Plant response rating, Itchgrass [5, 13]: 0
- Plant response rating, Itchgrass [5, 14]: 0
- Plant response rating, Itchgrass [5, 15]: 20
- Plant response rating, Itchgrass [5, 16]: 100
- Plant response rating, Itchgrass ([5]; Rate 250 g/ha): 100
- Plant response rating, Goosegrass [6, 13]: 90
- Plant response rating, Goosegrass [6, 14]: 100
- Plant response rating, Goosegrass [6, 15]: 100
- Plant response rating, Goosegrass [6, 16]: 100
- Plant response rating, Goosegrass ([6]; Rate 250 g/ha): 100
- Plant response rating Johnsongrass [7, 13]: 0
- Plant response rating Johnsongrass [7, 14]: 0
- Plant response rating Johnsongrass [7, 15]: 30
- Plant response rating Johnsongrass [7, 16]: 60
- Plant response rating Johnsongrass ([7]; Rate 250 g/ha): 100
- Plant response rating, Tall Mallow [8, 13]: 0
- Plant response rating, Tall Mallow [8, 14]: 30
- Tall Mallow plant response rating [8, 15]: 40
- Tall Mallow plant response rating [8, 16]: 90
- Plant response rating, Tall Mallow ([8]; Rate 250 g/ha): 100
- Sourgrass plant response rating [9, 16]: 50
- Plant response rating, Sourgrass ([9]; Rate 250 g/ha): —80
- Plant response rating, C. ragweed [10, 13]: 0
- Plant response rating, C. ragweed [10, 14]: 0
- Plant response rating, C. ragweed [10, 15]: 0
- Plant response rating, C. ragweed [10, 16]: 90
- Plant response rating, C. ragweed ([10]; Rate 250 g/ha): 100
- Plant response rating, Green foxtail [11]: 100
- DIGSA Observed ([12]; Alone: Cmpd. rate 70, Rimsulfuron 0): 100%
- DIGSA Observed ([12]; Alone: Cmpd. rate 105, Rimsulfuron 0): 100%
